By remaining activity is commonly meant the share of the control activity or signal that is left under treatment. As usually defined, the inhibition is the change of the read-out against control, counted positive when it falls.

Structures are written as SMILES. Entries after “also recorded” stand apart in the source; their conditions may differ.

For one test, the target named is T1, hABHD12 (Homo sapiens, UniProt Q8N2K0).
T1 construct: expressed in transfected cells; host or cells: HEK293 (transient)
T1 sequence (Q8N2K0 1-398): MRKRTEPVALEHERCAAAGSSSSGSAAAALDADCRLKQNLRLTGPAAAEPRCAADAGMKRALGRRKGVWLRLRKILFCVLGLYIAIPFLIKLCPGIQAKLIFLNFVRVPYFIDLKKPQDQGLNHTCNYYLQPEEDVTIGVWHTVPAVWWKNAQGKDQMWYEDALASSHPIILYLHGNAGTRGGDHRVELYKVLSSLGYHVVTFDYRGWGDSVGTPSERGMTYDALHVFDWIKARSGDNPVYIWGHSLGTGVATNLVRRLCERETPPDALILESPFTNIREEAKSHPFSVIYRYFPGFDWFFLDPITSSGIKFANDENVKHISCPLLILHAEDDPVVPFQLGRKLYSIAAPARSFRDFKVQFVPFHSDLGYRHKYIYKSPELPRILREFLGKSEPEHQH
Description: Fluorescent glycerol assay of 1-AG hydrolysis in hABHD12-HEK293 lysates. It counts as biochemical.
Details: not given
How it is done:
Glycerol liberated from 1-AG hydrolysis was determined with a sensitive fluorescent assay using lysates of HEK293 cells with transient overexpression of hABHD12, hABHD6 or hMAGL, essentially as previously described. […] Fluorescence (λex 530; λem 590 nm) was monitored using a Tecan Infinite M200 plate reader (Tecan Group Ltd., Männedorf, Switzerland). Inhibitory activities of selected compounds towards FAAH were determined using membranes of hFAAH overexpressing COS-7 cells, essentially as previously described. The final incubation volume (100 µL) contained 1 µg of protein and the substrate concentration was 20 µM (10 nM of ^3H-anandamide having specific activity of 60 Ci/mmol and concentration of 1 mCi/mL).
For `C[C@H]1[C@H](C)CC[C@]2(C(=O)O)CC[C@]3(C)C(=CC[C@@H]4[C@@]5(C)C[C@@H](O)[C@H](O)[C@@](C)(CO)[C@@H]5CC[C@]43C)[C@H]12` [Compound 5, Asiatic acid, reference compound], the “hABHD12 inhibitory activity (in words)” value is on record as “did not inhibit hABHD12; also recorded: completely devoid of activity”.

For the molecule `CC1(C)CC[C@]2(C(=O)O)CC[C@]3(C)C(=CC[C@@H]4[C@@]5(C)CC[C@H](O)[C@@](C)(CO)[C@@H]5CC[C@]43C)[C@@H]2C1` [Compound 9, Hederagenin, reference compound], the “hABHD12 inhibitory activity (in words)” value is listed as “did not inhibit hABHD12”.

Still in this test, the particulars now being: hABHD12-HEK293 lysates, 10 µM; NI = no inhibition; read-out: Remaining activity at 10 µM % ± s.e.m.
Turning to `C=C(C)[C@@H]1CC[C@]2(CO)CC[C@]3(C)[C@H](CC[C@@H]4[C@@]5(C)CC[C@H](O)C(C)(C)[C@@H]5CC[C@]43C)[C@@H]12` [Compound 2, Betulin, reference compound], the remaining activity at 10 µM was ~75%.

Turning to `C=C(C)[C@@H]1CC[C@]2(C)CC[C@]3(C)[C@H](CC[C@@H]4[C@@]5(C)CC[C@H](O)C(C)(C)[C@@H]5CC[C@]43C)[C@@H]12` [Compound 3, Lupeol, reference compound], the remaining activity at 10 µM is > 100%.

As for `C[C@H]1[C@H](C)CC[C@]2(C(=O)O)CC[C@]3(C)C(=CC[C@@H]4[C@@]5(C)C[C@@H](O)[C@H](O)[C@@](C)(CO)[C@@H]5CC[C@]43C)[C@H]12` [Compound 5, Asiatic acid, reference compound], the remaining activity at 10 µM is > 100%. The same measure, in the same setting: for `C[C@H]1[C@H](C)CC[C@]2(C)CC[C@]3(C)C(=CC[C@@H]4[C@@]5(C)CC[C@H](O)C(C)(C)[C@@H]5CC[C@]43C)[C@H]12` [Compound 6, α-Amyrin, reference compound] the value was > 100%; for `CC1(C)CC[C@]2(C(=O)O)CC[C@]3(C)C(=CC[C@@H]4[C@@]5(C)CC[C@H](O)C(C)(C)[C@@H]5CC[C@]43C)[C@@H]2C1` [Compound 7, Oleanolic acid, reference compound], ~20%; for `CC1(C)CC[C@]2(C(=O)O)CC[C@]3(C)C(=CC[C@@H]4[C@@]5(C)CC[C@H](O)[C@@](C)(CO)[C@@H]5CC[C@]43C)[C@@H]2C1` [Compound 9, Hederagenin, reference compound], 78 ± 3%.

For the molecule `CC1(C)CC[C@]2(C)CC[C@]3(C)C(=CC[C@@H]4[C@@]5(C)CC[C@H](O)C(C)(C)[C@@H]5CC[C@]43C)[C@@H]2C1` [Compound 10, β-Amyrin, reference compound], the remaining activity at 10 µM was > 100%. Still for that read-out and setting: for `COC(=O)[C@]12CCC(C)(C)C[C@H]1[C@H]1C(=O)C=C3[C@@]4(C)C=C(C#N)C(=O)C(C)(C)[C@@H]4CC[C@@]3(C)[C@]1(C)CC2` [Compound 13, CDDO methyl ester, reference compound] the value was > 100%. Same read-out and setting: as for `CC1=C(O)C(=O)C=C2C1=CC=C1[C@@]2(C)CC[C@@]2(C)[C@@H]3C[C@](C)(C(=O)O)CC[C@]3(C)CC[C@]12C` [Compound 14, Celastrol, reference compound], the figure is > 100%; as for `C=C(C)[C@@H]1CC[C@]2(C=O)CC[C@]3(C)[C@H](CC[C@@H]4[C@@]5(C)CC[C@H](O)C(C)(C)[C@@H]5CC[C@]43C)[C@@H]12` [Compound 16], 71 ± 0.8%; as for `C=C(C)[C@@H]1CC[C@]2(C(=O)NCCC)CC[C@]3(C)[C@H](CC[C@@H]4[C@@]5(C)CCC(=O)C(C)(C)[C@@H]5CC[C@]43C)[C@@H]12` [Compound 20], 84 ± 1.5%.

Take `C=C(C)[C@@H]1CC[C@]2(C(=O)N3CCCC3)CC[C@]3(C)[C@H](CC[C@@H]4[C@@]5(C)CCC(=O)C(C)(C)[C@@H]5CC[C@]43C)[C@@H]12` [Compound 21]: the remaining activity at 10 µM came to 80 ± 0.3%.

As for `C=C(C)[C@@H]1CC[C@]2(COC(=O)/C=C/c3ccccc3)CC[C@]3(C)[C@H](CC[C@@H]4[C@@]5(C)CC[C@H](O)C(C)(C)[C@@H]5CC[C@]43C)[C@@H]12` [Compound 26], the remaining activity at 10 µM is > 100%. The same measure, in the same setting: as for `C=C(C)[C@@H]1CC[C@]2(COC(=O)CCC(C)=O)CC[C@]3(C)[C@H](CC[C@@H]4[C@@]5(C)CC[C@H](O)C(C)(C)[C@@H]5CC[C@]43C)[C@@H]12` [Compound 27], the figure is 85 ± 0.5%.

Still in this test, the particulars now being: read-out: Remaining activity at 10 µM % ± s.e.m.
On to `COC(=O)[C@]1(C)CC[C@]2(C)CC[C@]3(C)C4=CC=C5C(=CC(=O)C(O)=C5C)[C@]4(C)CC[C@@]3(C)[C@@H]2C1` [Compound 15, Pristimerin, reference compound], for which the remaining activity at 10 µM is > 100%.

Still in this test, the particulars now being: read-out: inhibition of hABHD12 at 10 µM.
With `C=C(C)[C@@H]1CC[C@]2(C=O)CC[C@]3(C)[C@H](CC[C@@H]4[C@@]5(C)CC[C@H](O)C(C)(C)[C@@H]5CC[C@]43C)[C@@H]12` [Compound 16], the inhibition at 10 µM was ~30%.
